Assay results: patent publication US20200325543A1, “DIAGNOSTIC METHOD” (TOLREMO THERAPEUTICS AG, priority 2017, published 2020)
Several values for one entry are separate records, joined by “and”; a condition that tells them apart may be missing. Equal entries are not always repeated. Structures can show the parent of a compound that is named as a salt. Where two headings read alike, the source gives them in different places.

Experiments:
[1] = test system: SOX2; experiment: SOX2 levels by Western blot in A375-P cells; assay type: cell-based; settings: 1 μM PLX4720, 0.5 μM AZD6244 or both, indicated times, versus 0.01% DMSO
Method: (A) A375-P cells were treated with PLX4720 (BRAFi) or DMSO for 6 h, RNA was isolated and RNA-Seq was performed. […] Differentially expressed genes (DEGs) selected for pathway analysis are represented by red and blue dots depending on the direction of the transcriptional change (red genes are induced upon PLX4720, blue genes are repressed upon PLX4720). (B) Bar graphs showing the five top pathways with significant enrichment of the analyzed DEGs. Longer bars indicate stronger significance. (C) Top deregulated genes upon treatment with PLX4720 (left column). Top genes induced and repressed by PLX4720 are shown in separate lists. (D) Indicated cell lines were treated with 1 μM PLX4720 or 0.01% DMSO (0 h) for the indicated times and the expressional changes of selected genes associated with stemness/EMT were confirmed by qPCR. […] As key player in the sternness signature, SOX2 levels were assessed. […] (F) A375-P cells were treated with 1 μM PLX4720, 0.5 μM AZD6244 (MEK1/2 inhibitor) or 0.01% DMSO for the indicated times and SOX2 levels were assessed by Western blot analysis. […] (G) A375-P cells were treated with 1 μM PLX4720 (BRAFi), 0.5 μM AZD6244 (MEKi), a combination of both drugs or 0.01% DMSO for the indicated times and SOX2 levels were assessed by Western blot analysis. […] For all Western blots, individual time points were assessed in at least two independent experiments. […]

[2] = test system: genes associated with stemness/EMT; experiment: RNA-Seq / qPCR of genes associated with stemness/EMT in melanoma cells; assay type: cell-based; settings: A375-P cells, 1 μM PLX4720, 0.5 μM AZD6244 or both, 24 h, versus 0.01% DMSO
Method: Data shown represent mean of independent biological triplicates ±SEM. (E) Western blot analysis of the same experiment as shown in (D). […] P-ERK1/2 levels served as positive treatment controls. Total ERK1/2 levels served as loading control. (F) A375-P cells were treated with 1 μM PLX4720, 0.5 μM AZD6244 (MEK1/2 inhibitor) or 0.01% DMSO for the indicated times and SOX2 levels were assessed by Western blot analysis. […] (G) A375-P cells were treated with 1 μM PLX4720 (BRAFi), 0.5 μM AZD6244 (MEKi), a combination of both drugs or 0.01% DMSO for the indicated times and SOX2 levels were assessed by Western blot analysis. […] For all Western blots, individual time points were assessed in at least two independent experiments. Representative data is shown.

[3] = test system: S6K and BAD; experiment: Survival signaling by Western blot in A375-P/pTRIPZ cells; assay type: cell-based; settings: A375-P/pTRIPZ-control or -SOX2 cells, PLX4720 48 h
Method: (A) A375-P cells were transfected with 100 nM siRNA targeting SOX2 or a negative control siRNA. Cells were then treated with PLX4720 (BRAFi) or DMSO for 48 h. 2 h before harvesting, cells were pulsed with 3 uM EdU to label cycling cells. EdU-positive cells were detected using flow cytometry. Note that SOX2 knockdown has no effect on cell proliferation when BRAF is active (DMSO) but reduces the pool of drug-tolerant, cycling cells in the BRAFi condition. Representative data is shown. (B) Quantification of experiment (A). For each condition, percentage of cycling cells upon siRNA knockdown of SOX2 was normalized to the negative control siRNA. Data shown represent mean of independent biological triplicates ±SEM. (C) A375-P cells stably transduced with pTRIPZ-SOX2 vector were treated with the indicated concentrations of doxycycline for three days or with 1 μM PLX4720 (PLX) for 24 h. SOX2 overexpression was confirmed by Western blot analysis. Lamin A served as loading control. Individual concentrations were assessed in at least two independent experiments. Representative results are shown. […] EdU-positive cells were detected using flow cytometry. […] Cell viability was assessed by PrestoBlue assay and IC50 values were calculated. […] Survival signaling was assessed by Western blot. […]

[4] = test system: SOX2; experiment: Screen of a library of FDA-approved drugs for SOX2 antibody staining in A375 cells treated with PLX4720 and AZD6244; settings: for cor. loess: normalized and geometry-corrected (loess) signal; for norm: signal after plate normalization
[5] = A375 cells, 5 uM test drug with 1 uM PLX4720 and 0.5 uM AZD6244, 24 h
[6] = A375 cells, 5 uM test drug with 1 uM PLX4720 and 0.5 uM AZD6244, 24 h, raw signal (ratio of FL2 SOX2 antibody and FL3 nuclear staining), screen run in duplicate
[7] = Z-test against negative controls (DMSO), single dose 5 uM

| Compound | SOX2 levels (Western blot) [1] | expressional changes of selected genes associated with stemness/EMT (qPCR) [2] | Survival signaling via S6K and BAD (Western blot) [3] | cor. loess [4, 5] | raw [4, 6] | norm [4, 5] | z [4, 7] | raw [4] | z [4] |
| --- | --- | --- | --- | --- | --- | --- | --- | --- | --- |
| Cn1cnc2c(F)c(Nc3ccc(Br)cc3Cl)c(C(=O)NOCCO)cc21 [AZD6244] | induce similar SOX2 levels | comparable effects on transcript levels | – | – | – | – | – | – | – |
| CCCS(=O)(=O)Nc1ccc(F)c(C(=O)c2c[nH]c3ncc(Cl)cc23)c1F [PLX4720] | induce similar SOX2 levels | comparable effects on transcript levels | repressed | – | – | – | – | – | – |
| CC[C@@H](C(=O)[C@@H](C)[C@@H](O)[C@H](C)[C@@H]1O[C@@H]([C@@H](CC)C(=O)O)CC[C@@H]1C)[C@H]1O[C@]2(C=C[C@@H](O)[C@]3(CC[C@@](C)([C@H]4CC[C@](O)(CC)[C@H](C)O4)O3)O2)[C@H](C)C[C@@H]1C [SALINOMYCIN, SODIUM] | – | – | – | 0.802 | 0.9671 | 0.8129 | 8.891 | – | – |
| CO[C@H]1C[C@H](O[C@@H]2/C(C)=C/C[C@@H]3C[C@@H](C[C@]4(CC[C@H](C)[C@@H](C5CCCCC5)O4)O3)OC(=O)[C@@H]3C=C(C)/C(=N/O)[C@H]4OC/C(=C\C=C\[C@@H]2C)[C@]43O)O[C@@H](C)[C@@H]1O [SELAMECTIN] | – | – | – | 0.533 | 0.9768 | 0.5401 | 7.251 | – | – |
| CO[C@H]1C[C@@H]2CC[C@@H](C)[C@@](O)(O2)C(=O)C(=O)N2CCCC[C@H]2C(=O)O[C@H]([C@H](C)C[C@@H]2CC[C@@H](O)[C@H](OC)C2)CC(=O)[C@H](C)/C=C(\C)[C@@H](O)[C@@H](OC)C(=O)[C@H](C)C[C@H](C)/C=C/C=C/C=C/1C [SIROLIMUS] | – | – | – | 0.3171 | 0.9808 | 0.4075 | 4.314 | – | – |
| CCN(CC)CCNC(=O)c1c(C)[nH]c(/C=C2\C(=O)Nc3ccc(F)cc32)c1C [Sunitinib] | – | – | – | 0.5385 | 0.9775 | 0.514 | 5.758 | – | – |
| [H]/N=C(/NCCCCC)N/N=C/c1c[nH]c2ccc(OC)cc12 [TEGASEROD MALEATE] | – | – | – | 0.2864 | 0.9849 | 0.2748 | 3.897 | – | – |
| COc1cc([C@@H]2c3cc4c(cc3[C@@H](O[C@@H]3O[C@@H]5CO[C@@H](c6cccs6)O[C@H]5[C@H](O)[C@H]3O)[C@H]3COC(=O)[C@H]23)OCO4)cc(OC)c1O [TENIPOSIDE] | – | – | – | 0.6446 | 0.9667 | 0.8759 | 8.769 | – | – |
| CC(C)(C)c1ccc(C(O)CCCN2CCC(C(O)(c3ccccc3)c3ccccc3)CC2)cc1 (centres unmarked) [TERFENADINE] | – | – | – | 0.2601 | – | 0.5459 | 3.539 | – | – |
| Cc1cnc(Nc2ccc(OCCN3CCCC3)cc2)nc1Nc1cccc(S(=O)(=O)NC(C)(C)C)c1 [TG101348 (SAR302503)] | – | – | – | 1.471 | 0.9608 | 1.142 | 5.665 | – | – |
| C[CH2][Hg][S]c1ccccc1C(=O)[O-].[Na+] [THIMEROSAL] | – | – | – | – | – | – | – | 0.9726 and 0.8663 | – |
| Cc1cc2nc3ccc(N(C)C)cc3[s+]c2cc1N [TOLONIUM CHLORIDE] | – | – | – | 0.7082 | 0.971 | 0.6829 | 7.851 | – | – |
| CC(=O)OCC(=O)[C@@]1(O)[C@H](OC(C)=O)C[C@H]2[C@@H]3CCC4=CC(=O)C=C[C@]4(C)[C@@]3(F)[C@@H](O)C[C@@]21C [TRIAMCINOLONE DIACETATE] | – | – | – | 0.3964 | 0.9794 | 0.4506 | 4.238 | – | – |
| C[C@]12C=CC(=O)C=C1CC[C@H]1[C@@H]3C[C@@H](O)[C@](O)(C(=O)CO)[C@@]3(C)C[C@H](O)[C@@]12F [TRIAMCINOLONE] | – | – | – | 0.4006 | 0.9821 | 0.3941 | 3.438 | – | – |
| Oc1cc(Cl)ccc1Oc1ccc(Cl)cc1Cl [TRICLOSAN] | – | – | – | 0.531 | 0.9753 | 0.5438 | 3.141 | – | – |
| O=c1[nH]c(=O)n([C@H]2C[C@H](O)[C@@H](CO)O2)cc1C(F)(F)F [TRIFLURIDINE] | – | – | – | 0.4387 | 0.9796 | 0.4485 | 5.969 | – | – |
| COc1ccc2cc1Oc1ccc(cc1)C[C@H]1c3cc(c(OC)cc3CCN1C)Oc1c(OC)c(OC)cc3c1[C@H](C2)N(C)CC3 [Tetrandrine] | – | – | – | 1.018 | 0.9619 | 1.018 | 7.2 | – | – |
| O=C(CCCCCCC(=O)Nc1ccccc1)NO [VORINOSTAT] | – | – | – | 0.9868 | 0.9634 | 0.984 | 13.43 | – | – |
| Cc1ccc(-c2nc3ccc(C)cn3c2CC(=O)N(C)C)cc1 [ZOLPIDEM] | – | – | – | 0.2522 | 0.9798 | 0.4412 | 3.432 | – | – |
| ABAMECTIN [ABAMECTIN (avermectin B1a shown)] | – | – | – | 0.4606 | 0.9779 | 0.5009 | 4.925 | – | – |
| Aprotinin | – | – | – | 1.14 | 0.9662 | 0.9994 | 4.093 | – | – |
| GRAMICIDIN [GRAMICIDIN (gramicidin A shown)] | – | – | – | 0.5992 | 0.9705 | 0.7289 | – | – | 4.938 |
| HYDROCORTISONE HEMISUCCINATE | – | – | – | 0.4622 | – | 0.507 | – | – | 3.809 |
| IVERMECTIN | – | – | – | 0.6358 | 0.9726 | 0.6393 | 3.761 | – | – |
| MONENSIN SODIUM | – | – | – | 0.5359 | 0.9761 | 0.5968 | 4.599 | – | – |
